# Earlier results in patent publication US20090111747A1, “Anti-Diabetic or Anti-Hypertensive Dietary Supplement” (priority 2005, published 2009).
# Ends that are not written are not given here.
# Columns and labels:
# [1] = test system: rat intestinal α-glucosidase; details: literature, Inoue et al., 2000
# [2] = test system: mammalian α-glucosidase; details: literature, Oki et al., 1999
Substance,activity against rat intestinal α-glucosidase [1],inhibitory effect on mammalian α-glucosidase [2]
IISIGR,active against rat intestinal α-glucosidase,
Ile-Ile-Ser-Ile-Gly (IISIG; printed: Ile-Ile-Ser-Ile-Gly),active against rat intestinal α-glucosidase,
Tyr-Tyr-Pro-Leu (YYPL; printed: Tyr-Tyr-Pro-Leu),,neither the hydrolysate nor the peptides had any significant inhibitory effect
VFIKAA,active against rat intestinal α-glucosidase,
VFIKAAA,active against rat intestinal α-glucosidase,
Val-Phe-Ile-Lys-Ala (VFIKA; printed: Val-Phe-Ile-Lys-Ala),active against rat intestinal α-glucosidase,
Val-Trp,,neither the hydrolysate nor the peptides had any significant inhibitory effect
